Consider 28 compounds from US6635652B1, “Azaindolizinone derivatives and cerebral function improvers containing the same as the active ingredient” (Zenyaku Kogyo Kabushiki Kaisha, priority 1999, dated 2003).

Data set [1] deals with amnesia of rats induced by scopolamine. In words: Effects on scopolamine-induced amnesia (passive avoidance task, oral administration). The format is in vivo. To be noted: Rattus norvegicus, po, 60 min before retention trial, scopolamine hydrobromide 2 mg/kg i.p., passive avoidance latency, male Strague Dawley rats, read-out: Inhibitory rate (%); for inhibition in vivo at 0.01 mg/kg: 0.01 mg/kg p.o.; for inhibition in vivo at 1 mg/kg: 1 mg/kg p.o. From the text:
Male rats of the Strague Dawley strain at 8 weeks of age (260±2 g body weight) were used for evaluation through passive avoidance task. The apparatus of passive avoidance task comprises illuminated and dark chambers which are separated from each other by a wall with a door. Floors are constituted by grids made of stainless steel; only the grid in the dark chamber is furnished with wiring for electrification.
Effected on the first and second days of testing was preparative training; each rat was placed in the illuminated chamber and left for 3 minutes to habituate to the apparatus. On the third day of testing, the rats were individually placed in the illuminated chamber and after entering the dark chamber, the door was closed and the floor grid was electrified to deliver electric shock (100 V, 0.4 mA, a period of 0.8 sec). In order to induce amnesia, scopolamine hydrobromide (2 mg/kg) was intraperitoneally injected 20 minutes before the electric shock was delivered. Retention in memory on the electric shock was tested 24 hours later; more specifically, retention in passive avoidance trial was measured in terms of a time interval (latency) from placement of each rat in the illuminated chamber to its entry into the dark chamber. The latency over 300 seconds was recorded as 300 seconds. Respective test compounds were suspended in an aqueous solution of 1% carboxymethyl cellulose and orally administered at a dose of 0.01 or 1 mg/kg 60 minutes before the trial.
Antiamnesic effects of the test compounds were evaluated by inhibitory rate (%) which is calculated by the following formula: [formula]
wherein T stands for latency and SC stands for administration of scopolamine hydrobromide. Experimental results are shown in the following table in which, as to each of the test compounds, only the dose showing higher inhibitory rate was indicated.

For data set [2], the system named is rats of the ICR strain. In words: Toxicity test on rats in a single dose through oral administration. The format is in vivo. To be noted: oral administration of 2,000 mg/kg, suspended in 1% HPC, observation for 14 days. As to the method: Used in the test were rats of the ICR strain at 6 weeks of age (27.9±0.4 g body weight). They were allowed to freely take food and water; however, fasting was made for a period of 17 hours before administration of the test compounds and for a period of 4 hours after the administration. The respective test compounds were suspended in 1% of hydroxypropyl cellulose (HPC)and orally administered. Until 6 hours after the administration of the test compounds, observation was made frequently, and after that once a day and totally for 14 days.
Used as the test compounds were Compounds 8 and 10.

As a reminder, the melting point is the temperature, or range, at which the solid turns liquid. Compound `O=C1N=C2C(OCc3ccccc3)=CC=CN2C1(Cc1ccccc1)Cc1ccccc1` [Compound 6, 3,3-Dibenzyl-8-benzyloxyimidazo[1,2-a]pyridin-2(3H)-one] had a melting point of 240 to 241 °C. The inhibition in vivo at 0.01 mg/kg in data set [1] worked out at 58.8%.
As for `CC1=CC=CN2C1=NC(=O)C2(Cc1ccccc1)Cc1ccccc1` [Compound 8, 3,3-Dibenzyl-8-methylimidazo[1,2-a]pyridin-2(3H)-one], the inhibition in vivo at 0.01 mg/kg in data set [1] is 34.8%. Moreover, the “death after single oral dose” value in data set [2] was “None of them induced death”.
`CC1=CC2=NC(=O)C(Cc3ccccc3)(Cc3ccccc3)N2C(C)=C1` [Compound 9, 3,3-Dibenzyl-5,7-dimethylimidazo[1,2-a]pyridin-2(3H)-one] returned a melting point of 237 to 238 °C. Also, in data set [1], the inhibition in vivo at 1 mg/kg amounted to 66.4%.
With `O=C1N=C2C=CC=CN2C1(Cc1ccccc1)Cc1ccccc1` [Compound 10, 3,3-Dibenzylimidazo[1,2-a]pyridin-2(3H)-one], the inhibition in vivo at 0.01 mg/kg in data set [1] was determined as 78.7%. In data set [2], the “death after single oral dose” value was “None of them induced death”.
In turn, `O=C1N=C2C(OC3CCCC3)=CC=CN2C1(Cc1ccccc1)Cc1ccccc1` [Compound 11, 3,3-Dibenzyl-8-cyclopentyloxyimidazo[1,2-a]pyridin-2(3H)-one] gave a melting point of 268 to 269 °C. For the same compound, in data set [1], the inhibition in vivo at 1 mg/kg worked out at 48%.
As to `O=C1N=C2C(Cl)=CC(C(F)(F)F)=CN2C1(Cc1ccccc1)Cc1ccccc1` [Compound 13, 3,3-Dibenzyl-8-chloro-6-trifluoromethylimidazo[1,2-a]pyridin-2(3H)-one], the melting point is 234 to 236 °C. Moreover, the inhibition in vivo at 0.01 mg/kg in data set [1] was found to be 57%.
Turning to `Cc1cccc(CC2(Cc3cccc(C)c3)C(=O)N=C3C(OCc4ccccc4)=CC=CN32)c1` [Compound 14, 8-Benzyloxy-3,3-bis(3-methylbenzyl)imidazo[1,2-a]pyridin-2(3H)-one], the melting point was in the range of 233 to 235 °C. In data set [1], the inhibition in vivo at 1 mg/kg came out at 56.7%.
Compound `O=C1N=C2C=CC=CN2C1(Cc1ccc(F)cc1)Cc1ccc(F)cc1` [Compound 16, 3,3-bis(4-Fluorobenzyl)imidazo[1,2-a]pyridin-2(3H)-one] showed a melting point of 290 to 292 °C. The inhibition in vivo at 0.01 mg/kg in data set [1] stood at 55.4%.
Taken in the same sequence, the figures for `CN(C)c1ccc(CC2(Cc3ccc(N(C)C)cc3)C(=O)N=C3C=CC=CN32)cc1` [Compound 17, 3,3-bis(4-Dimethylaminobenzyl)imidazo[1,2-a]pyridin-2(3H)-one] were over 300 °C and 33.1%.
`O=C1N=C2C=CC=CN2C1(Cc1cccc(Cl)c1)Cc1cccc(Cl)c1` [Compound 18, 3,3-bis(3-Chlorobenzyl)imidazo[1,2-a]pyridin-2(3H)-one] had a melting point of 271 to 272 °C. In data set [1], the inhibition in vivo at 1 mg/kg came to 58.7%.
On to `COc1ccc(CC2(Cc3ccc(OC)cc3)C(=O)N=C3C=CC=CN32)cc1` [Compound 19, 3,3-bis(4-Methoxybenzyl)imidazo[1,2-a]pyridin-2(3H)-one], for which the melting point lay in the range of 248 to 251 °C. For the same compound, in data set [1], the inhibition in vivo at 1 mg/kg was found to be 64.3%.
`N#Cc1ccc(CC2(Cc3ccc(C#N)cc3)C(=O)N=C3C=CC=CN32)cc1` [Compound 21, 3,3-bis(4-Cyanobenzyl)imidazo[1,2-a]pyridin-2(3H)-one]: the melting point is 294 °C (dec.). The inhibition in vivo at 0.01 mg/kg in data set [1] is 58%.
Taken in the same sequence, the figures for `O=C1N=C2C=CC=CN2C1(Cc1ccc(O)cc1)Cc1ccc(O)cc1` [Compound 22, 3,3-bis(4-Hydroxybenzyl)imidazo[1,2-a]pyridin-2(3H)-one] were 276.5 to 277.5 °C and 37.4%.
The corresponding values for `C=CCC1(CC=C)C(=O)N=C2C=CC=CN21` [Compound 23, 3,3-Diallylimidazo[1,2-a]pyridin-2(3H)-one] are 64 to 66 °C and 53.6%.
On to `O=C1N=C2C=CC=CN2C1(CCCc1ccccc1)CCCc1ccccc1` [Compound 26, 3,3-bis(3-Phenyl-1-propyl)imidazo[1,2-a]pyridin-2(3H)-one], for which the melting point lay within 227 to 228 °C. The inhibition in vivo at 0.01 mg/kg in data set [1] was 53.5%.
`O=C1N=C2C=CC=CN2C1(Cc1ccc(F)cc1F)Cc1ccc(F)cc1F` [Compound 28, 3,3-bis(2,4-Difluorobenzyl)imidazo[1,2-a]pyridin-2(3H)-one] returned a melting point of 269 to 271 °C. Further, in data set [1], the inhibition in vivo at 0.01 mg/kg amounted to 62.7%.
Consider `CCCC1(CCC)C(=O)N=C2C=CC=CN21` [Compound 29, 3,3-Dipropylimidazo[1,2-a]pyridin-2(3H)-one], for which the melting point was 73 to 75 °C. In addition, the inhibition in vivo at 1 mg/kg in data set [1] stood at 115%.
In the case of `O=C1N=C2C=CC=CN2C1(Cc1cccs1)Cc1cccs1` [Compound 30, 3,3-bis(2-Thienylmethyl)imidazo[1,2-a]pyridin-2(3H)-one], the melting point is 289.5 °C (dec.). The inhibition in vivo at 0.01 mg/kg in data set [1] was 79.5%.
`CC(=O)NC1=CC=CN2C1=NC(=O)C2(Cc1ccccc1)Cc1ccccc1` [Compound 31, 8-Acetylamino-3,3-dibenzylimidazo[1,2-a]pyridin-2(3H)-one] registered a melting point of 235 to 237 °C. For the same compound, in data set [1], the inhibition in vivo at 1 mg/kg worked out at 60.4%.
As for `O=C1N=C2C=CC=CN2C1(Cc1ccco1)Cc1ccco1` [Compound 32, 3,3-bis(2-Furylmethyl)imidazo[1,2-a]pyridin-2(3H)-one], the melting point is 205 °C (dec.). In addition, the inhibition in vivo at 0.01 mg/kg in data set [1] amounted to 77.4%.
Taken in the same sequence, the figures for `CCCCC1(CCCC)C(=O)N=C2C=CC=CN21` [Compound 34, 3,3-Dibutylimidazo[1,2-a]pyridin-2(3H)-one] were 100.5 to 102 °C and 59.6%.
The corresponding values for `C#CCC1(CC#C)C(=O)N=C2C=CC=CN21` [Compound 35, 3,3-di(2-Propynyl)imidazo[1,2-a]pyridin-2(3H)-one] are 172 to 175 °C and 30.3%.
Compound `O=C1N=C2C(O)=CC=CN2C1(Cc1ccccc1)Cc1ccccc1` [Compound 36, 3,3-Dibenzyl-8-hydroxyimidazo[1,2-a]pyridin-2(3H)-one] gave a melting point of 283 to 285 °C. In addition, in data set [1], the inhibition in vivo at 0.01 mg/kg came out at 30%.
`O=C1N=C2C(NCc3ccccc3)=CC=CN2C1(Cc1ccccc1)Cc1ccccc1` [Compound 37, 3,3-Dibenzyl-8-benzylaminoimidazo[1,2-a]pyridin-2(3H)-one]: the melting point worked out at 250 °C. In data set [1], the inhibition in vivo at 0.01 mg/kg is 56%.
In turn, `O=C1N=C2C=CC=CN2C1(Cc1ccc([N+](=O)[O-])cc1)Cc1ccc([N+](=O)[O-])cc1` [Compound 38, 3,3-bis(4-Nitrobenzyl)imidazo[1,2-a]pyridin-2(3H)-one] returned a melting point of over 300 °C. The inhibition in vivo at 1 mg/kg in data set [1] was found to be 58.5%.
`O=C1N=C2C=CC=CN2C1(Cc1ccccc1)Cc1ccc(F)cc1` (centres unmarked) [Compound 39, 3-Benzyl-3-(4-fluorobenzyl)imidazo[1,2-a]pyridin-2(3H)-one] yielded a melting point of over 300 °C. For the same compound, the inhibition in vivo at 0.01 mg/kg in data set [1] was 43.7%.
As for `O=C(O)c1ccc(CC2(Cc3ccc(C(=O)O)cc3)C(=O)N=C3C=CC=CN32)cc1` [Compound 40, 3,3-bis(4-Carboxybenzyl)imidazo[1,2-a]pyridin-2(3H)-one], the melting point was over 300 °C. Also, the inhibition in vivo at 1 mg/kg in data set [1] amounted to 40.7%.
In turn, `NC1=CC=CN2C1=NC(=O)C2(Cc1ccccc1)Cc1ccccc1` [Compound 41, 8-Amino-3,3-dibenzylimidazo[1,2-a]pyridin-2(3H)-one] had a melting point of 283 to 285 °C. Besides, the inhibition in vivo at 0.01 mg/kg in data set [1] is 30%.
